Calls of active or inactive are those of the source. The rule behind the calls is not given here.
Key:
Cholinesterase = Cholinesterase (Homo sapiens, UniProt P06276); experiment: Inhibition of human plasma BChE using butyrylthiocholine iodide as substrate preincubated for 10 mins followed by substrate addition and measured at 6 mins by Ellman's method
[1] = Permeability of compound at 25 ug/ml at pH 7.4 incubated for 18 hrs by PAMPA-BBB assay
[2] = Octanol/water partition co-efficient, log P of compound at pH 7.4 by shake-flask method; format: physicochemical
Acetylcholinesterase [3] = target: T1, Acetylcholinesterase (Homo sapiens, UniProt P22303); experiment: Inhibition of human erythrocyte AChE using acetylthiocholine iodide as substrate preincubated for 10 mins followed by substrate addition and measured for 6 mins by Ellman's method
Mus musculus [4] = experiment: Cognitive enhancing effect in albino mouse assessed as reversal of scopolamine-induced reduction in spontaneous alteration score at 5 mg/kg, po administered once daily for 7 days followed by scopolamine challenge for 5 mins prior to test and measured on day 7 by Y-maze test; format: functional, organism-based
Mus musculus [5] = experiment: Reversal of scopolamine-induced amnesic effect in albino mouse assessed as increase in transfer latency time of acquisition trial at 5 mg/kg, po administered once daily for 7 days followed by scopolamine challenge and subsequent training session for 5 mins by passive avoidance test; format: functional, organism-based
Mus musculus [6] = experiment: Reversal of scopolamine-induced amnesic effect in albino mouse assessed as increase in transfer latency time of retention trial at 5 mg/kg, po administered once daily for 7 days followed by scopolamine challenge and subsequent training session for 5 mins by passive avoidance test; format: functional, organism-based
Acetylcholinesterase [7] = target: T1, Acetylcholinesterase; experiment: Competitive inhibition of human erythrocyte AChE assessed as […] in Km at 10 nM to 10 uM using acetylthiocholine iodide as substrate preincubated for 10 mins followed by substrate addition and measured up to 6 mins by Lineweaver-Burk plot analysis
[8] = Acute toxicity in Swiss albino mouse assessed as salivation by OECD 423 guideline based method; settings: in vivo
[9] = Acute toxicity in Swiss albino mouse assessed as mortality by OECD 423 guideline based method; settings: in vivo
[10] = Acute toxicity in Swiss albino mouse assessed as effect on sleep by OECD 423 guideline based method; settings: in vivo
[11] = Acute toxicity in Swiss albino mouse assessed as induction of tremors by OECD 423 guideline based method; settings: in vivo
Acetylcholinesterase [12] = target: T1, Acetylcholinesterase; experiment: (§1) Competitive inhibition of human erythrocyte AChE assessed as enzyme-inhibitor complex formation by measuring 1/s at 10 nM to 10 uM using acetylthiocholine iodide as substrate preincubated for 10 mins followed by substrate addition and measured up to 6 mins by Lineweaver-Burk plot analysis
Acetylcholinesterase [13] = target: T1, Acetylcholinesterase; experiment: Competitive inhibition of human erythrocyte AChE at 10 nM to 10 uM using acetylthiocholine iodide as substrate preincubated for 10 mins followed by substrate addition and measured up to 6 mins by Lineweaver-Burk plot analysis
[14] = Acute toxicity in Swiss albino mouse assessed as diarrhea by OECD 423 guideline based method; settings: in vivo
[15] = Acute toxicity in Swiss albino mouse assessed as convulsions by OECD 423 guideline based method; settings: in vivo
Acetylcholinesterase [16] = target: T1, Acetylcholinesterase; experiment: Competitive inhibition of human erythrocyte AChE assessed as effect on substrate V max at 10 nM to 10 uM using acetylthiocholine iodide as substrate preincubated for 10 mins followed by substrate addition and measured up to 6 mins by Lineweaver-Burk plot analysis
Mus musculus [17] = experiment: In vivo antioxidant activity in albino mouse assessed as increase in scopolamine-induced catalase activity by measuring decrease in H2O2 level in brain at 2.5 to 10 mg/kg, po administered once daily for 7 days followed by scopolamine challenge; format: functional, organism-based
Mus musculus [18] = experiment: Antialzheimer activity in albino mouse assessed as reversal of scopolamine-induced AChE level in brain at 2.5 to 10 mg/kg, po administered once daily for 7 days followed by scopolamine challenge using acetylthiocholine iodide as substrate by Ellman's method; format: functional, organism-based
Mus musculus [19] = experiment: Effect on total arm entries in scopolamine-induced spatial memory impairment in albino mouse model of amnesia at 2.5 to 10 mg/kg, po administered once daily for 7 days followed by scopolamine challenge for 5 mins prior to test and measured on day 7 by Y-maze test; format: ADME, organism-based; settings: in vivo
Mus musculus [20] = experiment: Reversal of scopolamine-induced amnesic effect in albino mouse assessed as increase in transfer latency time of acquisition trial at 2.5 to 10 mg/kg, po administered once daily for 7 days followed by scopolamine challenge and subsequent training session for 5 mins by passive avoidance test; format: functional, organism-based
Mus musculus [21] = experiment: In vivo antioxidant activity in albino mouse assessed as increase in scopolamine-induced SOD level in brain at 2.5 to 10 mg/kg, po administered once daily for 7 days followed by scopolamine challenge and measured for 2 mins at 30 secs interval; format: functional, organism-based
Acetylcholinesterase [22] = target: T1, Acetylcholinesterase; experiment: as §1, with “intersection points on both axes of 1/Vmax and 1/[S]” for “1/s”
Acetylcholinesterase [23] = target: T1, Acetylcholinesterase; experiment: Inhibition of human erythrocyte AChE-induced amyloid beta (1 to 42) (unknown origin) aggregation incubated for 48 hrs by fluorescence based thioflavin T assay
Mus musculus [24] = experiment: Reversal of scopolamine-induced amnesic effect in albino mouse assessed as increase in transfer latency time of retention trial at 2.5 to 10 mg/kg, po administered once daily for 7 days followed by scopolamine challenge and subsequent training session for 5 mins by passive avoidance test; format: functional, organism-based
[25] = Acute toxicity in Swiss albino mouse assessed as effect on feeding behavior by OECD 423 guideline based method; settings: in vivo
Mus musculus [26] = experiment: In vivo antioxidant activity in albino mouse assessed as decrease in scopolamine-induced MDA level in brain at 2.5 to 10 mg/kg, po administered once daily for 7 days followed by scopolamine challenge by TBARS assay; format: functional, organism-based
Mus musculus [27] = experiment: Cognitive enhancing effect in albino mouse assessed as reversal of scopolamine-induced reduction in spontaneous alteration score at 2.5 to 10 mg/kg, po administered once daily for 7 days followed by scopolamine challenge for 5 mins prior to test and measured on day 7 by Y-maze test; format: functional, organism-based

Cholinesterase, sequence (P06276 whole entry): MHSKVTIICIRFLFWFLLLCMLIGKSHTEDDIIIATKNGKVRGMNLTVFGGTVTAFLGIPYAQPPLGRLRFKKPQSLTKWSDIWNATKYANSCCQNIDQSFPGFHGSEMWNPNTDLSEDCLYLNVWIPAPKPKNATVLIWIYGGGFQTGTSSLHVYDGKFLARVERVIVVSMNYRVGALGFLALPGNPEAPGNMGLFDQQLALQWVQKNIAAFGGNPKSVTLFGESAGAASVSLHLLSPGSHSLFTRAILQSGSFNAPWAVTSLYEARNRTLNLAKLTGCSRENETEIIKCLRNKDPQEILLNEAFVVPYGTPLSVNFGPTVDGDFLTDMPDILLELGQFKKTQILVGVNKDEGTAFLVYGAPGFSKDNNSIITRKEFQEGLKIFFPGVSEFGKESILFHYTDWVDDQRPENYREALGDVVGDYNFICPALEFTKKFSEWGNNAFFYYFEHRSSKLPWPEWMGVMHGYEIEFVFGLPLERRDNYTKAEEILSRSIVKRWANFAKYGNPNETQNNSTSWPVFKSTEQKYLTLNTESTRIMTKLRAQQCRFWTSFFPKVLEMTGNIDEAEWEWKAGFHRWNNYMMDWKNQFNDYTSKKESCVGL
T1 sequence (P22303 whole entry): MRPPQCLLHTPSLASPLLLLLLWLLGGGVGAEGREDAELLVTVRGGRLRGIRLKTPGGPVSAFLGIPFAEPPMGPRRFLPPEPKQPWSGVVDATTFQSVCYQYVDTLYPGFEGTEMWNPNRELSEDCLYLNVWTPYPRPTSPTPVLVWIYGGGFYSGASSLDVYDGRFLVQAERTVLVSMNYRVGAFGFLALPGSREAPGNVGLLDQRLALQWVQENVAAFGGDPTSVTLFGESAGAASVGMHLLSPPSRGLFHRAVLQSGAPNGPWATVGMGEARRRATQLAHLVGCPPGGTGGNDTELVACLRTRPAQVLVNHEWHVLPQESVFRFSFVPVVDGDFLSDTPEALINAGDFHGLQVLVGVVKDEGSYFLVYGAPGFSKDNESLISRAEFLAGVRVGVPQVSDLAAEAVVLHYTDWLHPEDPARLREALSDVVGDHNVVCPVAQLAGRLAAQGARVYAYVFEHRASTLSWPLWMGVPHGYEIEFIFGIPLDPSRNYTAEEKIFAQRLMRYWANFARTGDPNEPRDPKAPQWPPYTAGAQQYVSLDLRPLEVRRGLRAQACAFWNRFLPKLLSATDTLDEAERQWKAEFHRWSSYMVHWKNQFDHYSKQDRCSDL

SMILES: COc1cccc(NCc2ccc(Oc3c(N)cccc3Cl)cc2)c1
- IC50 (Cholinesterase): 8.25 µM
- Papp at 18 h, 25 ug/ml [1]: 4.65 ×10⁻⁶ cm/s
- logD [2]: 3.98
- IC50 (Acetylcholinesterase [3]): 5.65 µM

SMILES: Nc1cccc(Cl)c1Oc1ccc(CNc2cc(Cl)cc(Cl)c2)cc1
- IC50 (Cholinesterase): > 10 µM
- Papp at 18 h, 25 ug/ml [1]: 1.56 ×10⁻⁶ cm/s
- logD [2]: 4.39
- IC50 (Acetylcholinesterase [3]): > 10 µM

SMILES: Nc1cccc(Cl)c1Oc1ccc(CNc2cccc(Cl)c2)cc1
- IC50 (Cholinesterase): > 10 µM
- Papp at 18 h, 25 ug/ml [1]: 5.65 ×10⁻⁶ cm/s
- logD [2]: 3.98
- IC50 (Acetylcholinesterase [3]): > 10 µM

SMILES: COc1cc(NCc2ccc(Oc3c(N)cccc3Cl)cc2)cc(OC)c1
- IC50 (Cholinesterase): 6.42 µM
- Papp at 18 h, 25 ug/ml [1]: 4.54 ×10⁻⁶ cm/s
- logD [2]: 3.56
- IC50 (Acetylcholinesterase [3]): 2.88 µM

SMILES: Nc1cccc(Cl)c1Oc1ccc(CNc2cc(Br)cc(Br)c2)cc1
- IC50 (Cholinesterase): > 10 µM
- Papp at 18 h, 25 ug/ml [1]: 1.45 ×10⁻⁶ cm/s
- logD [2]: 4.52
- IC50 (Acetylcholinesterase [3]): > 10 µM

SMILES: Nc1cccc(Cl)c1Oc1ccc(CNc2ccccc2)cc1
- IC50 (Cholinesterase): > 10 µM
- Papp at 18 h, 25 ug/ml [1]: 6.26 ×10⁻⁶ cm/s
- logD [2]: 3.54
- IC50 (Acetylcholinesterase [3]): > 10 µM

SMILES: Nc1cccc(Cl)c1Oc1ccc(CNc2cccc(Br)c2)cc1
- IC50 (Cholinesterase): > 10 µM
- Papp at 18 h, 25 ug/ml [1]: 3.56 ×10⁻⁶ cm/s
- logD [2]: 4.05
- IC50 (Acetylcholinesterase [3]): > 10 µM

SMILES: Nc1cccc(Cl)c1Oc1ccc(CNc2ccc(O)cc2)cc1
- IC50 (Cholinesterase): 9.36 µM
- Papp at 18 h, 25 ug/ml [1]: 6.87 ×10⁻⁶ cm/s
- logD [2]: 3.15
- IC50 (Acetylcholinesterase [3]): 8.81 µM

SMILES: COc1ccc(NCc2ccc(Oc3c(N)cccc3Cl)cc2)cc1
- IC50 (Cholinesterase): 9.97 µM
- Papp at 18 h, 25 ug/ml [1]: 5.68 ×10⁻⁶ cm/s
- logD [2]: 3.33
- IC50 (Acetylcholinesterase [3]): 5.24 µM

SMILES: CCn1cc(C(=O)O)c(=O)c2cc(F)c(N3CCNC(C)C3)c(F)c21 (configuration not stated) [LOMEFLOXACIN]
- Papp at 18 h, 25 ug/ml [1]: 0.31 to 1.1 ×10⁻⁶ cm/s

SMILES: Nc1cccc(Cl)c1Oc1ccc(CNc2cccc(O)c2)cc1
- IC50 (Cholinesterase): 9.45 µM
- Papp at 18 h, 25 ug/ml [1]: 5.55 ×10⁻⁶ cm/s
- logD [2]: 3.01
- IC50 (Acetylcholinesterase [3]): 7.23 µM

SMILES: CN(C)CCCN1c2ccccc2Sc2ccc(Cl)cc21 [CHLORPROMAZINE]
- Papp at 18 h, 25 ug/ml [1]: 5.8 to 6.5 ×10⁻⁶ cm/s

SMILES: Cc1nnc2n1-c1ccc(Cl)cc1C(c1ccccc1)=NC2 [ALPRAZOLAM]
- Papp at 18 h, 25 ug/ml [1]: 4.2 to 5.4 ×10⁻⁶ cm/s

SMILES: NCCc1ccc(O)c(O)c1 [DOPAMINE]
- Papp at 18 h, 25 ug/ml [1]: 0.18 to 0.2 ×10⁻⁶ cm/s

SMILES: COc1cc2c(cc1OC)C(=O)C(CC1CCN(Cc3ccccc3)CC1)C2 (configuration not stated)
- Activity (Mus musculus [4]): Active
- Activity (Mus musculus [5]): Active
- Activity (Mus musculus [6]): Active

SMILES: CC(=O)[C@H]1CC[C@H]2[C@@H]3CCC4=CC(=O)CC[C@]4(C)[C@H]3CC[C@]12C [PROGESTERONE]
- Papp at 18 h, 25 ug/ml [1]: 9.3 to 13.8 ×10⁻⁶ cm/s

SMILES: Nc1cccc(Cl)c1Oc1ccc(CNc2ccc(Br)cc2)cc1
- IC50 (Cholinesterase): > 10 µM
- Papp at 18 h, 25 ug/ml [1]: 3.48 ×10⁻⁶ cm/s
- logD [2]: 4.52
- IC50 (Acetylcholinesterase [3]): > 10 µM

SMILES: COc1cc(NCc2ccc(Oc3c(N)cccc3Cl)cc2)cc(OC)c1OC
- inhibition (Acetylcholinesterase [7]): Active
- Activity [8]: Non-Toxic
- Activity [9]: Non-Toxic
- Activity [10]: Non-Toxic
- Activity [11]: Non-Toxic
- Activity (Mus musculus [4]): Active
- fold change (FC) (Acetylcholinesterase [12]): > 0
- Ki (Acetylcholinesterase [13]): 0.879 µM
- IC50 (Cholinesterase): 8.41 µM
- Activity [14]: Non-Toxic
- Activity [15]: Non-Toxic
- inhibition (Acetylcholinesterase [16]): Active
- Activity (Mus musculus [17]): Active
- Papp at 18 h, 25 ug/ml [1]: 6.35 ×10⁻⁶ cm/s
- Activity (Mus musculus [18]): Dose-dependent effect
- Activity (Mus musculus [19]): Non-Toxic
- logD [2]: 3.78
- Activity (Mus musculus [20]): Active
- Activity (Mus musculus [21]): Active
- Ratio (Acetylcholinesterase [22]): > 0
- inhibition (Acetylcholinesterase [23]): Dose-dependent effect
- Activity (Mus musculus [24]): Dose-dependent effect
- Activity [25]: Non-Toxic
- Activity (Mus musculus [26]): Active
- Activity (Mus musculus [27]): Active
- IC50 (Acetylcholinesterase [3]): 1.32 µM

SMILES: Nc1cccc(Cl)c1Oc1ccc(CNc2ccc(Cl)cc2)cc1
- IC50 (Cholinesterase): > 10 µM
- Papp at 18 h, 25 ug/ml [1]: 3.42 ×10⁻⁶ cm/s
- logD [2]: 4.65
- IC50 (Acetylcholinesterase [3]): > 10 µM

Source: ChEMBL document CHEMBL4346739, “Design, synthesis, and evaluation of novel N-(4-phenoxybenzyl)aniline derivatives targeting acetylcholinesterase, β-amyloid aggregation and oxidative stress to treat Alzheimer's disease” (Bioorg Med Chem, 2019)
